The results in this text go back to the supplement of paper PMC10307832.

Holding throughout (test): relative viability (nuclei count vs DMSO), 5 days (fraction); higher = more cells survive
Compound in the assay “Erlotinib + Vorinostat”: C#Cc1cccc(Nc2ncnc3cc(OCCOC)c(OCCOC)cc23)c1 [Erlotinib] + O=C(CCCCCCC(=O)Nc1ccccc1)NO [Vorinostat] (partner 1 µM)
The essentials: (§1)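 Dosing by pin tool came one day after lung cancer cell lines were seeded in 1536-well plates, using either one drug or a fixed anchor-drug dose plus five library-drug doses (not always all listed) in √10 steps. After 5 days, nuclei were counted on 4× images. Relative viability is treated-well nuclei count divided by vehicle-well nuclei count, and values are medians of duplicate plates.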

Compound in the assay “Erlotinib + Bortezomib”: C#Cc1cccc(Nc2ncnc3cc(OCCOC)c(OCCOC)cc23)c1 [Erlotinib] + CC(C)C[C@H](NC(=O)[C@H](Cc1ccccc1)NC(=O)c1cnccn1)B(O)O [Bortezomib] (partner 0.002 µM)
The method in brief: as §1

Compound in the assay “AT9283 + Decitabine”: O=C(Nc1c[nH]nc1-c1nc2ccc(CN3CCOCC3)cc2[nH]1)NC1CC1 [AT9283] + Nc1ncn([C@H]2C[C@H](O)[C@@H](CO)O2)c(=O)n1 [Decitabine] (partner 2 µM)
The essentials:
as §1

Compound in the assay “Erlotinib + Olaparib”: C#Cc1cccc(Nc2ncnc3cc(OCCOC)c(OCCOC)cc23)c1 [Erlotinib] + O=C(c1cc(Cc2n[nH]c(=O)c3ccccc23)ccc1F)N1CCN(C(=O)C2CC2)CC1 [Olaparib] (partner 8 µM)
The method in brief:
as §1

Compound in the assay “AT9283 + OSI-027”: O=C(Nc1c[nH]nc1-c1nc2ccc(CN3CCOCC3)cc2[nH]1)NC1CC1 [AT9283] + COc1cccc2cc(-c3nc([C@H]4CC[C@H](C(=O)O)CC4)n4ncnc(N)c34)[nH]c12 [OSI-027] (partner 0.5 µM)
The method in brief: as §1

Consider HCC-366, for which the relative viability with Erlotinib + Vorinostat (first compound 0.02 µM) is 0.41; with Erlotinib + Vorinostat (first compound 0.2 µM), 0.363; with Erlotinib + Vorinostat (first compound 0.6325 µM), 0.369; with Erlotinib + Vorinostat (first compound 2 µM), 0.222; with Erlotinib + Bortezomib (first compound 0.2 µM), 1.08; in the assay with Erlotinib + Bortezomib (first compound 0.6325 µM) it was 1.1. The relative viability with Erlotinib + Bortezomib (first compound 2 µM) came to 1.06; with AT9283 + Decitabine (first compound 0.003 µM), 0.337; in the assay with AT9283 + Decitabine (first compound 0.03 µM) it was 0.299; with AT9283 + Decitabine (first compound 0.09487 µM), 0.141; with AT9283 + Decitabine (first compound 0.3 µM), 0.0851; with Erlotinib + Olaparib (first compound 0.02 µM) it was 0.331. Also, the relative viability came to 0.359 in the assay with Erlotinib + Olaparib (first compound 0.2 µM); 0.353 with Erlotinib + Olaparib (first compound 0.6325 µM); 0.242 with Erlotinib + Olaparib (first compound 2 µM); 0.834 in the assay with AT9283 + OSI-027 (first compound 0.003 µM); 0.845 with AT9283 + OSI-027 (first compound 0.03 µM); 0.048 with AT9283 + OSI-027 (first compound 0.09487 µM). In addition, the relative viability with AT9283 + OSI-027 (first compound 0.3 µM) was 0.0995.

On to PC-14, for which the relative viability with Erlotinib + Vorinostat (first compound 0.02 µM) was found to be 0.428; with Erlotinib + Vorinostat (first compound 0.2 µM), 0.0858; in the assay with Erlotinib + Vorinostat (first compound 0.6325 µM), 0.0926; in the assay with Erlotinib + Vorinostat (first compound 2 µM), 0.061; with Erlotinib + Bortezomib (first compound 0.02 µM), 0.67; with Erlotinib + Bortezomib (first compound 0.2 µM) it was 0.259. Further, the relative viability in the assay with Erlotinib + Bortezomib (first compound 0.6325 µM) was found to be 0.21; in the assay with Erlotinib + Bortezomib (first compound 2 µM), 0.249; in the assay with AT9283 + Decitabine (first compound 0.003 µM), 0.199; in the assay with AT9283 + Decitabine (first compound 0.03 µM), 0.157; in the assay with AT9283 + Decitabine (first compound 0.09487 µM), 0.0721; in the assay with AT9283 + Decitabine (first compound 0.3 µM) it was 0.0727. Moreover, the relative viability turned out to be 0.272 with Erlotinib + Olaparib (first compound 0.02 µM); 0.168 with Erlotinib + Olaparib (first compound 0.2 µM); 0.135 with Erlotinib + Olaparib (first compound 0.6325 µM); 0.106 with Erlotinib + Olaparib (first compound 2 µM); 0.878 with AT9283 + OSI-027 (first compound 0.003 µM); 0.745 with AT9283 + OSI-027 (first compound 0.03 µM). Also, the values for the relative viability with AT9283 + OSI-027 (first compound 0.09487 µM) and with AT9283 + OSI-027 (first compound 0.3 µM) were 0.0842 and 0.08, respectively.

Regarding UMC-11, the relative viability in the assay with Erlotinib + Vorinostat (first compound 0.02 µM) came to 0.388; in the assay with Erlotinib + Vorinostat (first compound 0.2 µM) it was 0.403; with Erlotinib + Vorinostat (first compound 0.6325 µM), 0.392; with Erlotinib + Vorinostat (first compound 2 µM), 0.3; with Erlotinib + Bortezomib (first compound 0.02 µM), 0.934; with Erlotinib + Bortezomib (first compound 0.2 µM) it was 0.837. The relative viability with Erlotinib + Bortezomib (first compound 0.6325 µM) was determined as 0.738; with Erlotinib + Bortezomib (first compound 2 µM), 0.586; with AT9283 + Decitabine (first compound 0.003 µM), 0.57; with AT9283 + Decitabine (first compound 0.03 µM), 0.217; with AT9283 + Decitabine (first compound 0.09487 µM), 0.261; with AT9283 + Decitabine (first compound 0.3 µM), 0.201. Moreover, the relative viability with Erlotinib + Olaparib (first compound 0.02 µM) was found to be 0.987; with Erlotinib + Olaparib (first compound 0.2 µM), 0.426; with Erlotinib + Olaparib (first compound 0.6325 µM) it was 0.477; with Erlotinib + Olaparib (first compound 2 µM), 0.324; with AT9283 + OSI-027 (first compound 0.003 µM), 0.559; with AT9283 + OSI-027 (first compound 0.03 µM), 0.17. Moreover, the results for the relative viability in the assay with AT9283 + OSI-027 (first compound 0.09487 µM) and with AT9283 + OSI-027 (first compound 0.3 µM) were 0.152 and 0.167, respectively.

With LCLC-97TM1, the relative viability with Erlotinib + Vorinostat (first compound 0.2 µM) amounted to 0.503; with Erlotinib + Vorinostat (first compound 0.6325 µM), 1.01; in the assay with Erlotinib + Vorinostat (first compound 2 µM), 0.596; with Erlotinib + Bortezomib (first compound 0.02 µM), 0.528; with Erlotinib + Bortezomib (first compound 0.2 µM), 0.747; in the assay with Erlotinib + Bortezomib (first compound 0.6325 µM) it was 0.529. Besides, the relative viability with Erlotinib + Bortezomib (first compound 2 µM) is 0.464; with AT9283 + Decitabine (first compound 0.003 µM) it was 0.199; with AT9283 + Decitabine (first compound 0.03 µM), 0.175; with AT9283 + Decitabine (first compound 0.09487 µM), 0.104; with AT9283 + Decitabine (first compound 0.3 µM), 0.089; with Erlotinib + Olaparib (first compound 0.02 µM), 0.45. In addition, the relative viability in the assay with Erlotinib + Olaparib (first compound 0.2 µM) stood at 0.352; with Erlotinib + Olaparib (first compound 0.6325 µM), 0.508; with Erlotinib + Olaparib (first compound 2 µM) it was 0.321; in the assay with AT9283 + OSI-027 (first compound 0.003 µM), 0.539; with AT9283 + OSI-027 (first compound 0.03 µM) it was 0.288; with AT9283 + OSI-027 (first compound 0.09487 µM) it was 0.0798. In the assay with AT9283 + OSI-027 (first compound 0.3 µM), the relative viability turned out to be 0.108.
